From patent publication EP0258134A1, “Therapeutical compositions containing benzhydryl thiomethane derivatives” (LABORATOIRE L. LAFON, priority 1986, dated 1988)

Experiments:
[1] = system: rat; assay: Global behaviour and reactivities, rat, i.p.; format: in vivo; details: rat
Experimental: (§1) Le composé CRL 41 334, en suspension dans une solution de gomme arabique, a été administré par voie intrapéritonéale sous un volume de 20 ml/kg chez la souris (mâle, NMRI, C.E.R. Janvier) et de 5 ml/kg chez le rat (mâle, CD₁; SPRAGUE DAWLEY, Charles River).
(§2) Des lots de 3 animaux sont observés avant, puis 15 mn, 30 mn, 1h, 2h, 3h et 24 heures après l'administration du composé CRL 41 334.
(§3) Le CRL 40 956, en suspension dans une solution de gomme arabique a été administré par voie intrapéritonéale sous un volume de 20 ml/kg chez la souris (mâle, NMRI, Evic Céba) et de 5 ml/kg chez le rat (mâle, CD₁, Sprague Dawley, Charles River).
(§4) Des lots de 3 animaux sont observés avant, puis 15 mn, 30 mn, 1 h, 2 h, 3 h et 24 heures après l'administration de CRL 40 956.

[2] = system: rat; assay: Interaction with apomorphine, rat; format: in vivo; details: 64 et 256 mg/kg, apomorphine 0,5 mg/kg s.c.
Experimental: Le composé CRL 41 334 est administré à des lots de 6 rats une demi-heure avant l'injection sous-cutanée de 0,5 mg/kg d'apomorphine.
Le CRL 40 956 est administré à des lots de 6 rats une demi-heure avant l'injection sous cutanée de 0,5 mg/kg d'apomorphine.

[3] = system: souris; assay: Interaction with barbital; format: in vivo; details: souris, 512 mg/kg, barbital 200 mg/kg i.p.
Experimental: Une demi-heure après l'administration du composé CRL 41 334, des lots de 20 souris reçoivent une injection intrapéritonéale de barbital ([…]).
Une demi-heure après l'administration du CRL 40 956 des lots de 10 souris reçoivent une injection intrapéritonéale de 200 mg/kg de barbital.

[4] = system: souris; assay: Global behaviour and reactivities, mouse, i.p.; format: in vivo
Experimental: as §1, §2
(§5) Le CRL 41 055, en suspension dans une solution de gomme arabique, a été administré par voie intrapéritonéale sous un volume de 20 ml/kg chez la souris (mâle, NMRI, Evic Ceba).
as §3, §4

[5] = system: souris; assay: Intergroup aggressiveness; format: in vivo; details: 128 mg/kg
Experimental: Après avoir séjourné pendant 3 semaines dans chacune des moitiés d'une cage séparées par une cloison opaque, des groupes de 3 souris reçoivent le composé CRL 41 334. Une demi-heure plus tard, les deux groupes d'une même cage sont réunis par retrait de la cloison et on note le nombre de combats qui surviennent en 10 minutes. Le test est pratiqué pour moitié sur les souris habituelles (NMRI, C.E.R. Janvier) et pour moitié sur des souris NMRI (Iffa Credo).
Après avoir séjourné pendant 3 semaines dans chacune des moitiés d'une cage séparée par une cloison opaque, des groupes de 3 souris reçoivent le CRL 40 956. Une demi-heure plus tard, les deux groupes d'une même cage sont réunis par retrait de la cloison et on note le nombre de combats qui surviennent en 10 minutes.

[6] = system: souris; assay: Pretoxicity, i.p., 3 mice per dose; format: in vivo
Experimental: as §1
I - PRETOXICITE ( 3 souris par dose)
as §5
Prétoxicite (3 souris par dose)
as §3
Prétoxicité ( 3 souris par dose)

[7] = system: souris; assay: Behavioural despair (forced immersion); format: in vivo; details: souris, 512 mg/kg
Excerpt: Une demi-heure après avoir reçu le composé CRL 41 334, des lots de 6 souris (mâles, CD₁, Charles River) sont placés dans un bécher rempli d'eau sur une hauteur de 6 cm. On note la durée totale d'immobilité entre la 2ème et la 6ème minutes suivant l'immersion.
Une demi-heure après avoir reçu le CRL 40 956, des lots de 10 souris (mâles CD₁ Charles River) sont plongées dans une enceinte réduite remplie d'eau sur une hauteur de 6 cm. On note la durée totale d'immobilité entre la 2ème et la 6ème minute suivant l'immersion.

[8] = Solubility in water; format: physicochemical; details: result in words
Excerpt: Le composé est une poudre blanche, insoluble dans l'éther de pétrole, soluble dans l'éther, l'acé-tate d'éthyle et les alcools. Sa solubilité dans l'eau est inférieure à 0,1%.

[9] = system: souris; assay: Asphyxic anoxia (gallamine triethiodide); format: in vivo; details: 512 mg/kg, gallamine 32 mg/kg i.p.
Experimental: Des lots de 20 souris reçoivent le composé CRL 41 334 une demi-heure avant l'administration intrapéritonéale de 32 mg/kg de triiodoéthylate de gallamine.
Des lots de 10 souris reçoivent le CRL 40 956 une demi-heure avant l'administration intrapé-ritonéale de 32 mg/kg de triodoéthylate de Gallamine.

[10] = system: souris; assay: Spontaneous motility (actimeter); format: in vivo; details: souris, half an hour before the actimeter
Experimental: Après avoir reçu le composé CRL 41 334, les souris sont placées en actimètre où leur motilité est enregistrée pendant 30 minutes.
Une demi-heure après avoir reçu le CRL 41 055, les souris (6 par dose, 12 témoins) sont placées en actimètre où leur motilité est enregistrée pendant 30 minutes.
Une demi-heure après avoir reçu le CRL 40 956, les souris (6 par dose, 12 témoins) sont placées en actimètre ou leur motilité est enregistrée pendant 30 minutes.

[11] = system: homme; assay: Therapeutic use in humans; format: in vivo; details: trois gélules de 50 mg par jour
[12] = system: souris; assay: Motility reduced by habituation to the enclosure; format: in vivo; details: 32 et 128 mg/kg
Experimental: Après 18 heures de séjour dans les actimè-tres, les souris (6 par dose, 12 témoins) reçoivent le composé CRL 41 334. Elles sont aussitôt replacées dans leurs enceintes respectives et, une demi-heure plus tard, on enregistre leur motilité pendant 30 minutes.
Après 18 heures de séjour dans les actimètres, les souris (6 par dose, 12 émoins) reçoivent le CRL 41 055. Elles sontaussitôt replacées dans leurs enceintes respectives et, une demi-heure plus tard, on enregistre leur motilité pendant 30 minutes.

[13] = system: souris femelles de souche OF₁; assay: Delayed hypersensitivity reaction to sheep red blood cells; format: in vivo; details: for Ind. Activité / % d'augmentation du coussinet (mm) m: voie orale; for % d'augmentation du coussinet (mm) m: trois jours avant immunisation
Excerpt: Selon la méthode de Miller, Lagrange et Mackaness ("Immunopotentiation with BCG II modulation of the response to sheep red blood cells", Journal of the National Cancer Institute 1973, 51, 5, 1669 - 1676).
Le composé à tester est administré par voie orale a des souris femelles de souche OF₁ trois jours avant immunisation.
Les résultats sont exprimés en pourcentage d'augmentation du coussinet plantaire.

[14] = system: rat; assay: Search for stereotyped movements, rat; format: in vivo; details: in vivo, 2 mg/kg
Excerpt: Des lots de 6 rats reçoivent une injection du composé CRL 41 334 ou d'amphétamine, puis sont immédiatement placés dans des boîtes de petites dimensions (20 x 10 x 10 cm) où leur comportement stéréotypeé est coté de 0 à 3 jusqu'à extinction de l'effet.

ON=CCSC(c1ccccc1)c1ccccc1 [CRL 40 956, 2-(benzhydrylthio)acétaldoxime]
comportement et réactivités ([1]; 64 mg/kg i.p.): sédation pendant 3 heures avec diminution | comportement et réactivités ([1]; 256 mg/kg i.p.): sédation pendant 3 heures | stéréotypies induites par l'apomorphine [2]: diminue très modérément l'intensité des stéréotypies | durée du sommeil barbiturique [3]: diminue la durée du sommeil barbiturique | comportement et réactivités ([4]; souris, 512 mg/kg i.p.): sédation pendant 2 à 3 heures | comportement et réactivités ([4]; souris, 128, 32 et 8 mg/kg i.p.): pas de symptômes nets | nombre de combats [5]: diminue le nombre de combats | symptômes ([6]; 256 mg/kg i.p.): mêmes symptômes | mortalité ([6]; 1024 et 512 mg/kg i.p.): pas de mortalité | symptômes ([6]; 1024 et 512 mg/kg i.p.): crampes abdominales, dyspnée | durée d'immobilité "de désespoir" [7]: diminue la durée d'immobilité | solubilité dans l'eau [8]: Insoluble dans l'eau | apparition des convulsions et de la mort [9]: retarde modérément l'apparition des convulsions et de la mort | activité motrice spontanée ([10]; 512 mg/kg): diminue fortement l'activité motrice spontanée

NC(=O)CSC(c1ccccc1)c1ccccc1 [CRL 41 055, 2-(benzhydrylthio)acétamide]
comportement et réactivités ([4]; souris, 2 mg/kg i.p.): pas de modifications nettes | comportement et réactivités ([4]; souris, 128 mg/kg i.p.): sédation pendant 30 minutes faisant place à une excitation tardive | comportement et réactivités ([4]; souris, 8 et 32 mg/kg i.p.): excitation pendant 2 heures | symptômes ([6]; 64 mg/kg i.p., after 45 minutes, lasting more than 2 hours): excitation, stéréotypies (reniflements, redressements) | symptômes ([6]; 512 mg/kg i.p.): sédation, fréquence respiratoire diminuée, contractions abdominales | convulsions ([6]; 512 mg/kg i.p., 18 heures après l'injection): convulsions intermittentes présentes chez toutes les souris | mortalité ([6]; 512 mg/kg i.p., après 48 heures): 1/3 | symptômes ([6]; 1024 mg/kg i.p.): mêmes symptômes | mortalité ([6]; 128 et 256 mg/kg i.p.): Pas de mortalité | symptômes ([6]; 128 et 256 mg/kg i.p.): pendant 45 minutes sédation, fréquence respiratoire diminuée | thérapeutique humaine comme antidépresseur [11]: s'est avéré utile | solubilité dans l'eau [8]: insoluble dans l'eau | activité motrice chez la souris habituée à son enceinte [12]: reprise nette de l'activité motrice | motilité spontanée ([10]; 32 et 128 mg/kg): augmentation de motilité spontanée

O=C(CSC(c1ccc(F)cc1)c1ccc(F)cc1)NO [CRL 41 335, acide 2-(4,4ʹ-difluorobenzhydrylthio)acétohydroxamique]
Ind. Activité ([13]; Exp 1, 0,1 mg/kg): 1,29 | % d'augmentation du coussinet (mm) m ([13]; Exp 1, 0,1 mg/kg): 11,5% | Ind. Activité ([13]; Exp 1, 1 mg/kg): 0,94 | % d'augmentation du coussinet (mm) m ([13]; Exp 1, 1 mg/kg): 8,4% | Ind. Activité ([13]; Exp 1, 10 mg/kg): 1,00 | % d'augmentation du coussinet (mm) m ([13]; Exp 1, 10 mg/kg): 8,9% | Ind. Activité ([13]; Exp 1, 100 mg/kg): 0,77 | % d'augmentation du coussinet (mm) m ([13]; Exp 1, 100 mg/kg): 6,9% | action immunostimulante ([13]; overall statement in the text): dépourvu d'une telle action immostimulante | solubilité dans l'eau [8]: insoluble dans l'eau

CC(N)Cc1ccccc1 (stereo not drawn) [amphétamine, reference compound]
durée des stéréotypies [14]: 270 min
